Read-outs that look alike come from different tables or passages of the source.

From patent US10392369B2, “N-[(pyrimidinyloxy)propanyl]benzamides” (Boehringer Ingelheim International GmbH, priority 2016, dated 2019) come the findings set out here.

One experiment deals with T1, human orexin 2 receptor (Homo sapiens, UniProt O43614).
T1 construct: stably expressing the full-length human orexin 2 receptor; expressed in transfected cells; host or cells: CHO-K1 (CHO-K1/hOx2), co-expressing the aequorin photoprotein
T1 sequence (O43614 1-444): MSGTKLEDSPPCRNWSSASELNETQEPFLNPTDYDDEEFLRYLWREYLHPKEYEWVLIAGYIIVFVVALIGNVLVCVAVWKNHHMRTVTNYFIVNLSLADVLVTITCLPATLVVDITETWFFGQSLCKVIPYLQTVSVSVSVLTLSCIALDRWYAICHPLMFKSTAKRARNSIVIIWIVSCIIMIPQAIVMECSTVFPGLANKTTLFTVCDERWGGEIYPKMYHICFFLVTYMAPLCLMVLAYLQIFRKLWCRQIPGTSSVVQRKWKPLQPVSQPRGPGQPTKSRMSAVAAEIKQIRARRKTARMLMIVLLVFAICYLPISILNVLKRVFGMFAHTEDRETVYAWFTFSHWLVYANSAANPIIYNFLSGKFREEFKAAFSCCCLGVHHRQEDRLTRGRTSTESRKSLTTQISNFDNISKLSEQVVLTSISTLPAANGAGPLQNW
Nature of the experiment: Assay B: OX2R IP1 (in vitro OX2R potency). The format is cell-based. To be noted: Table 3; 0.5 nM Orexin A. From the text:
Activation of the orexin receptors expressed in cell lines results in an increase in intracellular IP3 concentration. IP1, a downstream metabolite of IP3, accumulates in cells following receptor activation and is stable in the presence of LiCl. Using Homogeneous Time-Resolved Fluorescence technology with Lumi4-Tb cryptate (commercially available from Cisbio Bioassay.) and a suitable fluorescence plate reader. […] Chem. Genomics 2009, 3, 22-32. This technique is used to characterize pharmacological modification of the orexin receptors.
B. In Vitro Testing of OX2R Potency: OX2R IP1
(§1) IP1 measurements are performed in CHO-K1 cells stably expressing the full-length human orexin 2 receptor and the aequorin photoprotein. Cells are cultivated in Ham's nutrient mixture F12 medium with 10% fetal calf serum, in a 37° C., 95% humidity and 5% CO2 incubator. The CHO-K1/hOx2 cell mass is expanded to larger cell numbers. The cells are obtained as frozen cells in cryo-vials and stored until use at −150° C. The viability of the cells after thawing is >90%. In preparation for the assay, 24 hours before the assay, the cells are thawed at 37° C. and immediately diluted with cell culture medium. After centrifugation, the cell pellet is resuspended in medium and then distributed into the assay plates with a density of 5000 cells/25 μL per well. The plates are incubated for one hour at room temperature to reduce edge effects before they are incubated for 24 hours at 37° C./5% CO2. Compounds are prepared by a 8-point serial dilution in DMSO and a final dilution step into assay buffer (HBSS with 20 mM HEPES, 0.1% BSA and 50 mM LiCl, pH 7.4) to ensure a final DMSO concentration of 1% in the assay.
(§2) On the day of the assay, cells in the plate are washed twice with 60 μL assay buffer (20 μL buffer remained in the wells after washing), followed by adding 5 μL per well of compounds diluted in assay buffer. After 15 minutes of incubation at room temperature 5 μL per well of Orexin A peptide (final concentration: 0.5 nM) dissolved in assay buffer is added to the assay plate. The assay plate is incubated for 60 minutes at 37° C. Then 5 μl per well of Anti-IP1-Cryptate Tb solution and 5 μl per well of IP1-d2 dilution are added to all well of the plate and the plate is incubated for a further 60 minutes light protected at room temperature. The emission at 615 nm and 665 nm (Excitation wavelength: 320 nm) are measured using an EnVision reader (PerkinElmer). The ratio between the emission at 665 nm and 615 is calculated by the reader.
8-point four parametric non-linear curve fitting and determination of […] values and Hill slopes is performed using a regular analysis software e.g. AssayExplorer (Accelrys). In order to establish an agonist concentration independent parameter, Kb values are calculated using the following equation: IC50/((2+(A/EC50)^n)^1/n−1) (with A=concentration agonist, EC50=EC50 agonist, n=Hill slope agonist) (see P. Leff, I. G. Dougall, Trends Pharmacol. Sci. 1993, 14(4), 110-112).

A further experiment concerns the target T2, human Orexin 1 receptor (Homo sapiens, UniProt O43613).
T2 construct: stably expressing the full-length human Orexin 1 receptor; expressed in transfected cells; host or cells: CHO-K1 (CHO-K1/hOx1), co-expressing the aequorin photoprotein
T2 sequence (O43613 1-425): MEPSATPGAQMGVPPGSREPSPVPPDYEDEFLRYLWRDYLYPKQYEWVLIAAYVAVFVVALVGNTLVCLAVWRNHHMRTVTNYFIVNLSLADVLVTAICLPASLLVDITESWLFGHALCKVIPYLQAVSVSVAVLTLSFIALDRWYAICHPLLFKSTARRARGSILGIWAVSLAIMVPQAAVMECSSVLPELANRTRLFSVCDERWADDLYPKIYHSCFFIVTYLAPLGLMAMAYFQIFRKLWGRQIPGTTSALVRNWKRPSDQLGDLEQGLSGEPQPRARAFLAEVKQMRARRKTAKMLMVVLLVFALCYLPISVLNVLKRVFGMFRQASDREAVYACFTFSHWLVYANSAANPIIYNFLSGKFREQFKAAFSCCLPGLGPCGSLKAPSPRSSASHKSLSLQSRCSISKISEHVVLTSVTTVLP
Briefly: Assay A: OX1R IP1 (in vitro OX1R potency). The format is cell-based. To be noted: for Kb: Table 3, read-out: Assay A OX1R Kb (Orexin A concentration); for OX1R selectivity over OX2R (selectivity ratio OX2R Kb/OX1R Kb) compared to Example 91 in WO2016/034882 / OX1R potency compared to Example 91 in WO2016/034882: in words, versus Example 91 in WO2016/034882.
Text: Activation of the orexin receptors expressed in cell lines results in an increase in intracellular IP3 concentration. IP1, a downstream metabolite of IP3, accumulates in cells following receptor activation and is stable in the presence of LiCl. Using Homogeneous Time-Resolved Fluorescence technology with Lumi4-Tb cryptate (commercially available from Cisbio Bioassay.) and a suitable fluorescence plate reader. […] This technique is used to characterize pharmacological modification of the orexin receptors.
A. In Vitro Testing of OX1R Potency: OX1R IP1
as §1, with “human Orexin 1” for “human orexin 2”, “The CHO-K1/hOx1” for “The CHO-K1/hOx2”, “C. […]” for “C. The viability of the cells after thawing is >90%.”, “is re-suspended” for “is resuspended”, “of 10000” for “of 5000”, “by an” for “by a”
as §2, with “0.5 nM and/or 50” for “0.5”, “added” for “added to all well of the plate”, “temperature.” for “temperature. The emission at 615 nm and 665 nm (Excitation wavelength: 320 nm) are measured using an EnVision reader (PerkinElmer). The ratio between the emission at 665 nm and 615 is calculated by the reader.”
8-point four parametric non-linear curve fitting and determination of IC50 values and Hill slopes is performed using a regular analysis software e.g. AssayExplorer (Accelrys). In order to establish an agonist concentration independent parameter, Kb values are calculated using the following equation: IC50/((2+(A/EC50)^n)^1/n−1) (with A=concentration agonist, EC50=EC50 agonist, n=Hill slope agonist).

With `CCN(C(=O)c1ccc(C)cc1-c1nnc(C)o1)[C@@H](C)COc1ncc(C(F)(F)F)cn1` [Example 19], on human orexin 2 receptor, the Kb is 6640 nM. Further, at human Orexin 1 receptor, the “OX2R Kb/OX1R Kb” value stood at 909 and the “OX1R selectivity over OX2R (selectivity ratio OX2R Kb/OX1R Kb) compared to Example 91 in WO2016/034882” value is given as “increase in OX1R selectivity”. Moreover, the Kb at human Orexin 1 receptor (0.5 nM Orexin A) was 7.3 nM.
The like results for `CCN(C(=O)c1cc(C)ccc1-n1cccn1)[C@@H](C)COc1ncc(C(F)(F)F)cn1` [Example 8] were, in that order, 502 nM, 228, “increase in OX1R selectivity” and 2.2 nM.
For `CCN(C(=O)c1ccccc1-c1cnc(C)o1)[C@@H](C)COc1ncc(C(F)(F)F)cn1` [Example 31] the same measures were 746 nM, 124, “increase in OX1R selectivity” and 6 nM.
As for `CCN(C(=O)c1cc(C)ccc1-n1nccn1)[C@@H](C)COc1ncc(C(F)(F)F)cn1` [Example 5], the Kb at human orexin 2 receptor amounted to 156 nM; at human Orexin 1 receptor (0.5 nM Orexin A) it was 1 nM; on human Orexin 1 receptor (50 nM Orexin A), 1.1 nM. The “OX1R potency compared to Example 91 in WO2016/034882” value at human Orexin 1 receptor was “increase”. For the same compound, on human Orexin 1 receptor, the “OX1R selectivity over OX2R (selectivity ratio OX2R Kb/OX1R Kb) compared to Example 91 in WO2016/034882” value is reported as “increase”.
Consider `CCN(C(=O)c1cc(F)ccc1-n1nccn1)[C@@H](C)COc1ncc(C(F)(F)F)cn1` [Example 20], for which the Kb on human orexin 2 receptor amounted to 803 nM. Also, on human Orexin 1 receptor, the “OX2R Kb/OX1R Kb” value is 309 and the “OX1R selectivity over OX2R (selectivity ratio OX2R Kb/OX1R Kb) compared to Example 91 in WO2016/034882” value is “more selective”. In addition, at human Orexin 1 receptor (0.5 nM Orexin A), the Kb was 2.6 nM.
On to `CCN(C(=O)c1ccc(F)c(F)c1-n1nccn1)[C@@H](C)COc1ncc(C(F)(F)F)cn1` [Example 35], for which the Kb on human orexin 2 receptor is 455 nM. At human Orexin 1 receptor, the “OX2R Kb/OX1R Kb” value is 182 and the “OX1R selectivity over OX2R (selectivity ratio OX2R Kb/OX1R Kb) compared to Example 91 in WO2016/034882” value is “more selective”. In addition, on human Orexin 1 receptor (0.5 nM Orexin A), the Kb was 2.5 nM.
For `CCN(C(=O)c1ccccc1-c1nc(C)no1)[C@@H](C)COc1ncc(C(F)(F)F)cn1` [Example 15] the same measures were 999 nM, 128, “increase in OX1R selectivity” and 7.8 nM.
Consider `CCN(C(=O)c1ccc(F)cc1-c1ncccn1)[C@@H](C)COc1ncc(C(F)(F)F)cn1` [Example 25], for which the Kb on human orexin 2 receptor stood at 272 nM; at human Orexin 1 receptor (0.5 nM Orexin A), 0.81 nM; on human Orexin 1 receptor (50 nM Orexin A) it was 1.4 nM.
Compound `CCN(C(=O)c1cc(C)c(C)cc1-n1nccn1)[C@@H](C)COc1ncc(C(F)(F)F)cn1` [Example 2] yielded a Kb at human orexin 2 receptor of 34 nM. At human Orexin 1 receptor, the “OX2R Kb/OX1R Kb” value is 87 and the “OX1R potency compared to Example 91 in WO2016/034882” value is given as “increase in OX1R potency”. Further, on human Orexin 1 receptor (50 nM Orexin A), the Kb came out at 0.39 nM.
As to `CCN(C(=O)c1ccc(C)cc1-n1nccn1)[C@@H](C)COc1ncc(C(F)(F)F)cn1` [Example 13], the Kb on human orexin 2 receptor is 142 nM; at human Orexin 1 receptor (0.5 nM Orexin A), 0.5 nM; on human Orexin 1 receptor (50 nM Orexin A), 0.38 nM. Also, at human Orexin 1 receptor, the “OX1R potency compared to Example 91 in WO2016/034882” value is given as “increase”. Further, the “OX1R selectivity over OX2R (selectivity ratio OX2R Kb/OX1R Kb) compared to Example 91 in WO2016/034882” value on human Orexin 1 receptor is reported as “increase”.
In turn, `CCN(C(=O)c1ccc(C)c(C)c1-n1nccn1)[C@@H](C)COc1ncc(C(F)(F)F)cn1` [Example 10] returned a Kb at human orexin 2 receptor of 565 nM. Besides, on human Orexin 1 receptor, the “OX2R Kb/OX1R Kb” value was 869, the “OX1R potency compared to Example 91 in WO2016/034882” value is listed as “increase” and the “OX1R selectivity over OX2R (selectivity ratio OX2R Kb/OX1R Kb) compared to Example 91 in WO2016/034882” value was “increase”. In addition, the Kb on human Orexin 1 receptor (50 nM Orexin A) amounted to 0.65 nM.
In turn, `CCN(C(=O)c1cc(F)cc(F)c1-n1nccn1)[C@@H](C)COc1ncc(C(F)(F)F)cn1` [Example 22] showed a Kb at human orexin 2 receptor of 1460 nM. For the same compound, on human Orexin 1 receptor, the “OX2R Kb/OX1R Kb” value is recorded as 406 and the “OX1R selectivity over OX2R (selectivity ratio OX2R Kb/OX1R Kb) compared to Example 91 in WO2016/034882” value is recorded as “more selective”. Also, the Kb at human Orexin 1 receptor (0.5 nM Orexin A) came to 3.6 nM.
The like results for `CCN(C(=O)c1cccc(F)c1-c1nnc(C)o1)[C@@H](C)COc1ncc(C(F)(F)F)cn1` [Example 18] were, in that order, 6640 nM, 415, “increase in OX1R selectivity” and 16 nM.
As to `CCN(C(=O)c1cccc(C)c1-c1nnc(C)o1)[C@@H](C)COc1ncc(C(F)(F)F)cn1` [Example 21], the Kb turned out to be 540 nM on human orexin 2 receptor, 2 nM on human Orexin 1 receptor (0.5 nM Orexin A) and 1.9 nM at human Orexin 1 receptor (50 nM Orexin A). Also, the “OX1R selectivity over OX2R (selectivity ratio OX2R Kb/OX1R Kb) compared to Example 91 in WO2016/034882” value on human Orexin 1 receptor is given as “increase in OX1R selectivity”.
Regarding `CCN(C(=O)c1ccccc1-n1nccn1)[C@@H](C)COc1ncc(C(F)(F)F)cn1` [Example 24], the Kb at human orexin 2 receptor worked out at 237 nM; at human Orexin 1 receptor (0.5 nM Orexin A), 1.8 nM; on human Orexin 1 receptor (50 nM Orexin A) it was 2.6 nM.
